ChEMBL document CHEMBL1122174, “Behavioral and serotonin receptor properties of 4-substituted derivatives of the hallucinogen 1-(2,5-dimethoxyphenyl)-2-aminopropane” (J Med Chem, 1982)
The source made the active and inactive calls. The rule behind the calls is not given here.

Legend:
[1] = system: Rattus norvegicus; experiment: Dose required to produce 50% hallucinogenic potency in rat was determined at a dose of 0.75 mg/kg; format: functional
[2] = system: Rattus norvegicus; experiment: Number of rats responding out of 5 treated rats at a dose of 0.75 mg/Kg; format: functional
[3] = system: Rattus norvegicus; experiment: Dose required to produce 50% hallucinogenic potency in rat was determined at a dose of 0.5 mg/kg; format: functional
[4] = system: Rattus norvegicus; experiment: Number of rats responding out of 5 treated rats at a dose of 0.25 mg/Kg; format: functional
[5] = species: Rattus norvegicus; experiment: Dose at which the rats perform 50% appropriate drug -lever responding was determined; format: functional
[6] = system: Rattus norvegicus; experiment: Number of rats responding out of 5 treated rats at a dose of 0.125 mg/Kg; format: functional
[7] = system: Rattus norvegicus; experiment: Dose required to produce 50% hallucinogenic potency in rat was determined at a dose of 0.25 mg/kg; format: functional
[8] = system: Rattus norvegicus; experiment: Dose required to produce 50% hallucinogenic potency in rat was determined at a dose of 0.125 mg/kg; format: functional
[9] = target: Serotonin (5-HT) receptor; experiment: Binding affinity at rat 5-hydroxytryptamine receptor.; format: protein assay
[10] = system: Rattus norvegicus; experiment: Number of rats responding out of 5 treated rats at a dose of 0.5 mg/Kg; format: functional
[11] = system: Rattus norvegicus; experiment: Dose required to produce 50% hallucinogenic potency in rat was determined at a dose of 1 mg/kg; format: functional
[12] = system: Rattus norvegicus; experiment: Number of rats responding out of 5 treated rats at a dose of 1 mg/Kg; format: functional
[13] = system: Rattus norvegicus; experiment: Dose required to produce 50% hallucinogenic potency in rat was determined at a dose of 4 mg/kg; Disruption behavior; format: functional, organism-based; design: dose 4 mg/kg
[14] = system: Rattus norvegicus; experiment: Number of rats responding out of 5 treated rats at a dose of 1.5 mg/Kg; format: functional
[15] = system: Rattus norvegicus; experiment: Dose required to produce 50% hallucinogenic potency in rat was determined at a dose of 1.5 mg/kg; format: functional
[16] = species: Homo sapiens; experiment: Hallucinogenic potency was determined in humans; format: functional
[17] = system: Rattus norvegicus; experiment: Dose required to produce 50% hallucinogenic potency in rat was determined at a dose of 0.15 mg/kg; format: functional
[18] = system: Rattus norvegicus; experiment: Number of rats responding out of 5 treated rats at a dose of 0.10 mg/Kg; format: functional
[19] = system: Rattus norvegicus; experiment: Dose required to produce 50% hallucinogenic potency in rat was determined at a dose of 0.2 mg/kg; format: functional
[20] = system: Rattus norvegicus; experiment: Number of rats responding out of 5 treated rats at a dose of 0.15 mg/Kg; format: functional
[21] = system: Rattus norvegicus; experiment: Number of rats responding out of 5 treated rats at a dose of 0.20 mg/Kg; format: functional
[22] = system: Rattus norvegicus; experiment: Dose required to produce 50% hallucinogenic potency in rat was determined at a dose of 0.1 mg/kg; format: functional
[23] = system: Rattus norvegicus; experiment: Number of rats responding out of 5 treated rats at a dose of 5 mg/Kg; format: functional
[24] = system: Rattus norvegicus; experiment: Dose required to produce 50% hallucinogenic potency in rat was determined at a dose of 4 mg/kg; format: functional
[25] = system: Rattus norvegicus; experiment: Number of rats responding out of 5 treated rats at a dose of 4 mg/Kg; format: functional
[26] = system: Rattus norvegicus; experiment: Number of rats responding out of 5 treated rats at a dose of 2 mg/Kg; format: functional
[27] = system: Rattus norvegicus; experiment: Dose required to produce 50% hallucinogenic potency in rat was determined at a dose of 2 mg/kg; format: functional
[28] = system: Rattus norvegicus; experiment: Number of rats responding out of 5 treated rats at a dose of 3 mg/Kg; format: functional
[29] = system: Rattus norvegicus; experiment: Dose required to produce 50% hallucinogenic potency in rat was determined at a dose of 3 mg/kg; format: functional
[30] = system: Rattus norvegicus; experiment: Number of rats responding out of 5 treated rats at a dose of 2.5 mg/Kg; format: functional
[31] = system: Rattus norvegicus; experiment: Dose required to produce 50% hallucinogenic potency in rat was determined at a dose of 2.5 mg/kg; format: functional
[32] = system: Rattus norvegicus; experiment: Dose required to produce 50% hallucinogenic potency in rat was determined at a dose of 5 mg/kg; format: functional
[33] = system: Rattus norvegicus; experiment: Number of rats responding out of 5 treated rats at a dose of 9 mg/Kg; format: functional
[34] = system: Rattus norvegicus; experiment: Dose required to produce 50% hallucinogenic potency in rat was determined at a dose of 8 mg/kg; format: functional
[35] = system: Rattus norvegicus; experiment: Dose required to produce 50% hallucinogenic potency in rat was determined at a dose of 2.0 mg/kg; format: functional
[36] = system: Rattus norvegicus; experiment: Number of rats responding out of 5 treated rats at a dose of 10 mg/Kg; format: functional
[37] = system: Rattus norvegicus; experiment: Dose required to produce 50% hallucinogenic potency in rat was determined at a dose of 9 mg/kg; format: functional
[38] = system: Rattus norvegicus; experiment: Number of rats responding out of 5 treated rats at a dose of 8 mg/Kg; format: functional
[39] = system: Rattus norvegicus; experiment: Number of rats responding out of 5 treated rats at a dose of 5.5 mg/Kg; format: functional
[40] = system: Rattus norvegicus; experiment: Dose required to produce 50% hallucinogenic potency in rat was determined at a dose of 5.5 mg/kg; format: functional
[41] = system: Rattus norvegicus; experiment: Dose required to produce 50% hallucinogenic potency in rat was determined at a dose of 3.5 mg/kg; format: functional
[42] = system: Rattus norvegicus; experiment: Number of rats responding out of 5 treated rats at a dose of 3.5 mg/Kg; format: functional
[43] = system: Rattus norvegicus; experiment: Dose required to produce 50% hallucinogenic potency in rat was determined at a dose of 3.0 mg/kg; format: functional
[44] = system: Rattus norvegicus; experiment: Dose required to produce 50% hallucinogenic potency in rat was determined at a dose of 5.0 mg/kg; format: functional
[45] = system: Rattus norvegicus; experiment: Dose required to produce 50% hallucinogenic potency in rat was determined at a dose of 2 mg/kg; Disruption behavior; format: functional, organism-based; design: dose 2 mg/kg
[46] = system: Rattus norvegicus; experiment: Dose required to produce 50% hallucinogenic potency in rat was determined at a dose of 3 mg/kg; Disruption behavior; format: functional, organism-based; design: dose 3 mg/kg

COc1cc(C[C@@H](C)N)c(OC)cc1I
DOM [1]: 96%
No. of animals [2]: 5
DOM [3]: 75%
No. of animals [4]: 5
ED50 [5]: 0.26 mg/kg
No. of animals [6]: 5
DOM [7]: 47%
DOM [8]: 18%
pA2 [9]: 7.63
No. of animals [10]: 5

COc1cc([N+](=O)[O-])c(OC)cc1C[C@@H](C)N
DOM [1]: 61%
No. of animals [2]: 5
DOM [11]: 93%
DOM [3]: 44%
ED50 [5]: 0.57 mg/kg
pA2 [9]: 7.49
No. of animals [12]: 5
No. of animals [10]: 5

COc1ccc(C[C@@H](C)N)cc1
DOM [11]: 20%
DOM [3]: 18%
DOM [13]: inactive
No. of animals [14]: 1
No. of animals [12]: 3
No. of animals [10]: 5

COc1cc(C[C@H](C)N)c(OC)cc1Br
DOM [15]: 96%
DOM [1]: 35%
No. of animals [2]: 5
DOM [3]: 20%
ED50 [5]: 0.81 mg/kg
No. of animals [14]: 5
No. of animals [10]: 5
HHP [16]: 4 mg

COc1cc(C[C@@H](C)N)c(OC)cc1Br
DOM [17]: 79%
ED50 [5]: 0.1 mg/kg
No. of animals [18]: 5
DOM [19]: 91%
No. of animals [20]: 5
No. of animals [21]: 5
DOM [22]: 47%
HHP [16]: 0.4 mg

COc1cccc(CC(C)N)c1 (racemic)
No. of animals [23]: 1
DOM [24]: 10%
DOM [13]: inactive
No. of animals [25]: 3
No. of animals [26]: 5
DOM [27]: 8%

COc1ccccc1CC(C)N (racemic)
No. of animals [28]: 4
DOM [29]: 7%
DOM [13]: inactive
No. of animals [25]: 2
No. of animals [26]: 5
DOM [27]: 2%

COc1cc(Br)c(OC)c(CC(C)N)c1 (racemic)
No. of animals [28]: 4
DOM [11]: 2%
DOM [29]: 0%
No. of animals [12]: 5
No. of animals [26]: 5
DOM [27]: 3%

COc1cc(CC(C)N)c(OC)cc1F (racemic)
DOM [15]: 45%
DOM [1]: 25%
No. of animals [2]: 5
DOM [11]: 43%
DOM [3]: 6%
DOM [29]: 88%
ED50 [5]: 1.45 mg/kg
No. of animals [30]: 5
DOM [31]: 66%
pA2 [9]: 7.2
No. of animals [12]: 5
No. of animals [10]: 5

COc1cc(CC(C)N)c(OC)cc1I (racemic)
DOM [1]: 80%
No. of animals [2]: 5
DOM [11]: 93%
DOM [3]: 41%
No. of animals [4]: 5
ED50 [5]: 0.42 mg/kg
DOM [7]: 31%
pA2 [9]: 7.49
No. of animals [12]: 5
No. of animals [10]: 5
HHP [16]: 0.8 mg

CCc1cc(OC)c(CC(C)N)cc1OC (racemic)
DOM [3]: 99%
No. of animals [4]: 5
ED50 [5]: 0.23 mg/kg
No. of animals [6]: 5
DOM [7]: 44%
DOM [8]: 10%
No. of animals [10]: 5
HHP [16]: 1.5 mg

CCOc1cc(OC)c(CC(C)N)cc1OC (racemic)
DOM [32]: 16%
No. of animals [33]: 4
No. of animals [23]: 5
ED50 [5]: 6.33 mg/kg
DOM [34]: 68%
DOM [35]: 2%
No. of animals [36]: 1
DOM [37]: 85%
No. of animals [38]: 5
pA2 [9]: 6.78
No. of animals [26]: 5
HHP [16]: 30 mg

COc1cc([N+](=O)[O-])c(OC)cc1CC(C)N (racemic)
DOM [15]: 87%
DOM [11]: 55%
DOM [3]: 32%
ED50 [5]: 0.76 mg/kg
No. of animals [14]: 5
pA2 [9]: 7.07
No. of animals [12]: 4
No. of animals [10]: 5

COc1cc(OC)c(OC)cc1CC(C)N (racemic)
No. of animals [39]: 6
DOM [40]: 90%
No. of animals [23]: 5
DOM [41]: 59%
ED50 [5]: 3.59 mg/kg
DOM [24]: 70%
No. of animals [25]: 5
No. of animals [42]: 5
DOM [43]: 20%
DOM [44]: 81%
HHP [16]: 20 mg

COc1ccc(OC)c(CC(C)N)c1 (racemic)
ED50 [43]: 5.51 mg/kg
HHP [16]: 50 mg

CC(N)Cc1ccccc1 (racemic) [AMPHETAMINE]
DOM [15]: 26%
No. of animals [28]: 0
DOM [11]: 2%
DOM [45]: inactive
DOM [46]: inactive
No. of animals [14]: 3
No. of animals [12]: 5
No. of animals [26]: 1

COc1cc(CC(C)N)c(OC)cc1Br (racemic) [BROLAMFETAMINE]
DOM [3]: 91%
No. of animals [4]: 5
ED50 [5]: 0.2 mg/kg
No. of animals [6]: 5
DOM [7]: 70%
DOM [8]: 18%
DOM [19]: 51%
No. of animals [21]: 5
No. of animals [10]: 5
HHP [16]: 0.8 mg

COc1cc(CC(C)N)c(OC)cc1C (racemic) [DOM]
ED50 [43]: 0.44 mg/kg
HHP [16]: 2 mg

COc1ccc(CC(C)N)cc1 (racemic) [PARA-METHOXYAMPHETAMINE]
DOM [11]: 15%
DOM [3]: 13%
DOM [13]: inactive
No. of animals [14]: 2
No. of animals [12]: 4
No. of animals [10]: 5
